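Tested at 5 concentrations; 48 h exposure; 96-well plates; endpoints linearly interpolated, else capped at highest concentration. GI50: concentration for 50% inhibition of growth.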 Calls of active or inactive are those of the source. No stated cut-off is given here; in the data, active = GI50 up to about 1.1 µM and inactive = higher.
Columns and labels:
Assay in all cases: NCI-60 cell line screen, 48 h
[1] = system: SK-MEL-5
[2] = system: SW-620
[3] = system: MOLT-4
[4] = system: HOP-62
[5] = system: BT-549
[6] = system: Malme-3M
[7] = system: ACHN
[8] = system: 786-0
[9] = system: HT-29
[10] = system: HL-60
[11] = system: UACC-62
[12] = system: SF-539
[13] = system: A498
[14] = system: PC-3
[15] = system: RXF 393
[16] = system: COLO 205
[17] = system: MDA-MB-435
[18] = system: CAKI-1

Measured: GI50

CC1(C)CC(=O)C2=C(C1)NC1=C(C2)C(=O)CC(C)(C)C1
inactive: [1] > 100 µM | [2] > 100 µM | [3] > 100 µM | [4] > 100 µM | [5] > 100 µM | [6] > 100 µM | [7] > 100 µM | [8] > 100 µM | [9] > 100 µM | [10] > 100 µM | [11] > 100 µM | [12] > 100 µM | [13] > 100 µM | [14] > 100 µM | [15] > 100 µM | [16] > 100 µM | [17] > 100 µM | [18] > 100 µM

CC(=O)C(=[N+]=[N-])C(=O)OC(C)(C)C#N
inactive: [1] > 10 µM | [2] > 10 µM | [3] > 10 µM | [4] > 10 µM | [5] > 10 µM | [6] > 10 µM | [7] > 10 µM | [8] > 10 µM | [9] > 10 µM | [10] > 10 µM | [11] > 10 µM | [12] > 10 µM | [13] > 10 µM | [14] > 10 µM | [15] > 10 µM | [16] > 10 µM | [17] > 10 µM | [18] > 10 µM

O=S1(=O)c2cnccc2N=C(NCc2cccc3ccccc23)N1c1ccccc1
inactive: [1] > 95.9 µM | [2] > 100 µM | [3] 12.2 µM | [4] > 100 µM | [5] > 100 µM | [6] > 100 µM | [7] 35.9 µM | [8] 15 µM | [9] > 100 µM | [10] 1.87 µM | [11] > 22.4 µM | [12] > 100 µM | [13] > 100 µM | [14] 30 µM | [15] > 43.9 µM | [16] > 85.7 µM | [17] > 100 µM | [18] > 100 µM

COC(=O)[C@H]1NC(=O)CCSSC1(C)C
inactive: [1] > 100 µM | [2] > 100 µM | [3] > 100 µM | [4] > 100 µM | [5] > 100 µM | [6] > 100 µM | [7] > 100 µM | [8] > 100 µM | [9] > 100 µM | [10] > 100 µM | [11] > 100 µM | [12] > 100 µM | [13] > 100 µM | [14] > 100 µM | [15] > 100 µM | [16] > 100 µM | [17] > 100 µM | [18] > 100 µM

Cc1ccc(C2=Nn3c(nc4sc5c(c4c3=O)CCCC5)SC2)cc1
inactive: [1] > 100 µM | [2] > 100 µM | [3] > 100 µM | [4] > 100 µM | [5] > 100 µM | [6] > 100 µM | [7] > 100 µM | [8] > 100 µM | [9] > 100 µM | [10] > 100 µM | [11] > 100 µM | [12] > 100 µM | [13] > 100 µM | [14] > 100 µM | [15] > 100 µM | [16] > 100 µM | [17] > 100 µM | [18] > 100 µM

O=S(=O)(O)c1cc(Nc2ccnc3ccccc23)c2c(S(=O)(=O)O)cc(S(=O)(=O)O)cc2c1
inactive: [1] > 100 µM | [2] 42.1 µM | [3] > 100 µM | [4] > 100 µM | [5] > 100 µM | [6] > 100 µM | [8] > 100 µM | [9] > 100 µM | [11] > 100 µM | [12] > 100 µM | [13] > 100 µM | [14] > 100 µM | [15] > 100 µM | [16] > 100 µM | [17] > 100 µM | [18] > 100 µM

CC(C)(C)OC(=O)N(O)CCCn1cnc2c(NC3CC3)ncnc21
inactive: [1] > 100 µM | [2] > 100 µM | [3] > 100 µM | [4] > 100 µM | [5] > 100 µM | [6] > 100 µM | [7] > 100 µM | [8] > 100 µM | [9] > 100 µM | [11] > 100 µM | [12] > 100 µM | [13] > 100 µM | [14] > 100 µM | [15] > 100 µM | [16] > 100 µM | [17] > 100 µM | [18] > 100 µM

S=c1nc(Nc2ccc(Cl)cc2)c2c3c(sc2[nH]1)CCCC3
inactive: [1] > 100 µM | [2] > 100 µM | [3] 64.7 µM | [4] > 100 µM | [5] > 100 µM | [6] > 100 µM | [7] 74.5 µM | [8] > 100 µM | [9] > 100 µM | [10] 54 µM | [11] > 100 µM | [13] > 100 µM | [14] 57.7 µM | [15] > 100 µM | [16] > 100 µM | [17] > 100 µM | [18] > 100 µM

N#Cc1c(-c2ccccc2)c(/C=N/c2cccc(C(F)(F)F)c2)c(=O)n2c1[nH]c1ccccc12
inactive: [1] 52 µM | [2] 30.2 µM | [4] 30.5 µM | [5] 48 µM | [6] 42.3 µM | [7] 30.1 µM | [8] 36.1 µM | [12] 16.7 µM | [13] 34.4 µM | [14] 31 µM | [15] 32.8 µM | [16] > 100 µM | [17] 39.5 µM | [18] 2.07 µM

Cc1c(C)c2c(c(N)c1C#N)C(=O)N(N)C2=O
inactive: [1] > 100 µM | [2] 80.5 µM | [3] 61.7 µM | [5] > 100 µM | [6] > 100 µM | [7] > 100 µM | [8] 87.9 µM | [9] > 100 µM | [10] > 100 µM | [11] > 100 µM | [12] > 100 µM | [13] 40.4 µM | [14] > 100 µM | [15] > 100 µM | [16] > 100 µM | [17] > 100 µM | [18] > 100 µM

Cc1nc2ccccc2c(=O)n1NC(=O)c1ccc(N)cc1
inactive: [1] 17.8 µM | [2] > 100 µM | [3] > 100 µM | [4] > 100 µM | [5] > 100 µM | [6] > 100 µM | [7] > 100 µM | [8] > 100 µM | [9] > 100 µM | [10] > 100 µM | [11] > 100 µM | [12] > 100 µM | [13] > 100 µM | [14] > 100 µM | [15] > 100 µM | [16] > 100 µM | [17] > 100 µM

Clc1ccc(CN2CCCN(Cc3ccc(Cl)cc3)C2c2cc3ccccc3c3ccccc23)cc1
inactive: [1] 17.8 µM | [2] 51.8 µM | [3] 5.85 µM | [4] > 100 µM | [5] 38.3 µM | [6] 18.4 µM | [7] > 100 µM | [8] 75 µM | [9] 36.8 µM | [11] 18.7 µM | [12] 62.2 µM | [13] 19 µM | [14] 24.3 µM | [15] 24.8 µM | [16] 19.7 µM | [17] 30.2 µM | [18] 49.8 µM

O=c1c2ccccc2nc(N/N=C/c2ccccc2O)n1-c1ccccc1
inactive: [1] 4.56 µM | [2] 5.75 µM | [4] 5.25 µM | [5] 41.5 µM | [6] 12.2 µM | [7] 3.62 µM | [8] 1.53 µM | [9] 4.55 µM | [10] 2.65 µM | [11] 2.77 µM | [12] 5.31 µM | [13] > 100 µM | [14] 3.57 µM | [15] 17.1 µM | [16] 3.99 µM | [17] 4.71 µM | [18] 5.62 µM

COc1ccc(CCNC(=O)Cc2ccccc2CO)cc1OC
inactive: [1] > 100 µM | [2] > 100 µM | [3] > 100 µM | [4] > 100 µM | [5] > 100 µM | [7] > 100 µM | [8] > 100 µM | [9] > 100 µM | [10] > 100 µM | [11] > 100 µM | [12] > 100 µM | [13] > 100 µM | [14] > 100 µM | [15] > 100 µM | [16] > 100 µM | [17] > 100 µM | [18] > 100 µM

N=C(N)SCc1cccc(-c2nc3ccccc3c(=O)o2)c1
inactive: [1] > 100 µM | [2] > 100 µM | [4] > 100 µM | [5] > 100 µM | [6] > 100 µM | [7] > 100 µM | [8] > 100 µM | [9] > 100 µM | [11] > 100 µM | [12] > 100 µM | [13] > 100 µM | [14] > 100 µM | [15] > 100 µM | [16] > 100 µM | [17] > 100 µM | [18] > 100 µM

Cc1cc2c(c(/C=N/Cc3ccccc3)c1)OC1(C=C2)Oc2ccccc2C(=O)N1C (stereo unspecified)
inactive: [1] 19.9 µM | [2] 33.6 µM | [3] 4.5 µM | [4] 31.6 µM | [5] 23.5 µM | [7] 20.7 µM | [8] 29.4 µM | [9] 21.6 µM | [10] 21 µM | [11] 22.4 µM | [13] 23.9 µM | [14] 24.7 µM | [15] 20 µM | [16] 17.9 µM | [17] 28.7 µM | [18] 16.6 µM

Source: ChEMBL document CHEMBL1201862, “PubChem BioAssay data set” (2004)
